In publication PMC11091220, “Metabolism-driven in vitro/in vivo disconnect of an oral ERɑ VHL-PROTAC” (Communications Biology, 2024):

How the values were obtained:
[1] = Mouse microsome intrinsic clearance; type: in vitro ADME
Protocol: Mouse liver microsomes (Male CD-1) are obtained from Corning at a concentration of 20 mg/mL protein. The test compound was prepared to 10 mM in 100% DMSO and further diluted to 100 μM in 100% acetonitrile. The microsomal incubations were prepared in phosphate buffered solution pH 7.4 containing 1 mg/mL microsomal protein, 1 mM NADPH and a final compound concentration of 1 μM. Following a pre-incubation with NADPH for 8 min, reactions were initiated through the addition of the test compound (final volume 250 µL) and incubated at 37 °C in a water bath for 30 min. At each time point (0.5, 5, 10, 15, 20, 30 min) 20 μL of incubation mixture was quenched with 100 μL of 100% ice cold acetonitrile. Samples were shaken at 800 rpm for 2 min and centrifuged at 4000 rpm for 20 min at 4 °C to pellet precipitated protein. The supernatant fraction was diluted 1:5 with deionised water, shaken at 1000 rpm for 2 min, and further diluted 1:1 with deionised water. Samples were analysed by LC-MS/MS[17].

ERα = biological target: T1, ERα (Homo sapiens, UniProt P03372); experiment: Western blot analysis of ERα in MCF7 cells (dose response, MG132, VHL ligand and cpd 8 competition); type: cell-based
T1 construct: endogenous in cells; host or cells: MCF7 (also MCF7 engineered to express Cas9)
T1 sequence (P03372 1-595): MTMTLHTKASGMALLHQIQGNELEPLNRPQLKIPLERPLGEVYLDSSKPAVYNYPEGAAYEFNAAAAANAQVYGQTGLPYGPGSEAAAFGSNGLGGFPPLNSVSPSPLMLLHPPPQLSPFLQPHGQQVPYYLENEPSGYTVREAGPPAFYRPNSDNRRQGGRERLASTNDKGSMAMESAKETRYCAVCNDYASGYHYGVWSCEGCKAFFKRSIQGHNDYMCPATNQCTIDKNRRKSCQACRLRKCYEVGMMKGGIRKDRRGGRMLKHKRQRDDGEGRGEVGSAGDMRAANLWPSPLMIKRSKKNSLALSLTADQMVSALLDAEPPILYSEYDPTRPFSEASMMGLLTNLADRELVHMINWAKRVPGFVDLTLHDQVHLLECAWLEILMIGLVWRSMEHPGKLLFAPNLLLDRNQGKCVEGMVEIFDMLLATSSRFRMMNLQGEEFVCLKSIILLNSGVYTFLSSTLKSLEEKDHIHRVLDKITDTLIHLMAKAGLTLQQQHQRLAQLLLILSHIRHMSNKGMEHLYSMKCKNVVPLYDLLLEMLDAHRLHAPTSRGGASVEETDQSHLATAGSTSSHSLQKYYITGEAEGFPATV
Protocol: Fig. 2 AZ’6421 degrades ERα through a PROTAC mechanism of action. a Immunoblots for ERα and vinculin loading control. MCF7 cells were pre-treated with 10 µM MG132 or DMSO control for 1 h before being exposed to DMSO, AZ’6421, or fulvestrant, at the concentrations indicated, for a further 7 h. A representative immunoblot from two biological replicates is shown. b As in a but cells were pre-treated with 10 µM VHL ligand (Ac-(S,R,S)-AHPC) prior to addition of DMSO, AZ’6421 or fulvestrant. c MCF7 cells expressing BFP-Cas9 were reverse transfected with the crRNA:tracrRNA pool targeting VHL for 72 h prior to treatment with increasing concentrations of AZ’6421 for a further 24 h. Cells were then fixed, stained, and imaged to assess ERα and Cas9 expression. ERα levels in Cas9 positive cells were normalised to unedited cells (0) and ESR1 KO cells (-100). Data points are from three independent experiments, points in bold represent the mean. d Structure of AZ’6421 and the (S)-prolinol epimer, 7. e Concentration-response curves for AZ’6421 and 7. ERα levels in MCF7 cells were assessed using an immunofluorescence endpoint after 24 h exposure to compound. […] Data points are from 5 (AZ'6421) or 2 (Cpd 7) independent experiments with technical duplicates performed for each experiment, bold points represent the mean. All concentration-response curves were plotted using nonlinear regression analysis in GraphPad Prism.
Fig. 6 Assessment of the cause of the in vitro/in vivo disconnect. a CTC174 tumours were disaggregated into single cells, seeded in 6-well plates and dosed with increasing concentrations of AZ’6421 for 24 hours before being lysed. ERα levels were assessed by immunoblotting. ERɑ levels normalised to vinculin and expressed as % DMSO control are shown underneath the immunoblot. b Representative IHC images taken from sections of tumour treated with vehicle control or 100 mg/kg AZ’6421 for 4 days. Sections were stained with an antibody against ERα (Sp1, Ventana). c Schematic of potential sites of metabolism d Free plasma exposure of AZ’6421 and its metabolite 8 following 100 mg/kg dosing of AZ’6421. e Concentration-response curves for AZ’6421 and metabolite 8. ERα levels in MCF7 cells were assessed using an immunofluorescence endpoint after 24 h exposure to compound. […] Points in bold represent the mean. f Effect of metabolite 8 on ERα degradation in CTC174 cells cultured ex vivo. […] MCF7 cells were pre-treated with 10 µM cpd 8 or DMSO control for 1 h before being exposed to DMSO, AZ’6421 or fulvestrant, at the concentrations indicated, for a further 24 h. A representative immunoblot from two biological replicates is shown. TEXT PRINTED IN THE PICTURE: (a) AZ'6421: ERα % of DMSO control: 20.3 (1 nM); ERα % of DMSO control: 12.0 (10 nM); ERα % of DMSO control: 4.1 (30 nM); ERα % of DMSO control: 4.2 (100 nM); ERα % of DMSO control: 3.9 (300 nM); ERα % of DMSO control: 3.6 (1000 nM)
Cells were seeded into 12-well tissue culture-treated plates at 0.5 x 10^6 cells/well in phenol red-free RPMI containing 5% (v/v) charcoal-stripped FBS (F6765, Sigma) and left to adhere overnight. In experiments to detect agonism or for SILAC experiments, FBS was double stripped using activated charcoal. Cells were treated with compound or 0.1% DMSO vehicle control for the times indicated prior to being lysed in Pierce RIPA buffer (Thermo Scientific), supplemented with protease and phosphatase inhibitors. Expression levels of proteins were determined by standard western blotting techniques (BioRad 4%-12% Bis-Tris gels). Antibodies were diluted in 5% milk-PBS-Tween and protein levels were detected using Pierce WestDura chemiluminescent reagents followed by visualisation and quantification on a Syngene ChemiGenius Imager. Where blots were quantified, protein levels were normalised to beta-actin or vinculin control and expressed as % of vehicle control.

Cc1ncsc1-c1ccc(CNC(=O)[C@@H]2C[C@@H](O)CN2C(=O)[C@@H](NC(=O)COCCCOCCCOc2cc(F)c([C@@H]3c4[nH]c5ccccc5c4C[C@@H](C)N3CC(C)(C)F)c(F)c2)C(C)(C)C)cc1 [Compound 5]
mouse liver microsomes stability [1]: 22 µL/min/mg protein | effect of MG132 pre-treatment on ERα degradation (ERα; 10 µM MG132 1 h, then compound 7 h, MCF7): attenuated ERα degradation | effect of excess acetylated-(S,R,S)-AHPC pre-treatment on ERα degradation (ERα; 10 µM VHL ligand, MCF7): partially reduced ERα degradation | effect of excess (10 µM) 8 on ERα degradation (ERα; MCF7, 100 and 300 nM, 24 h): reduce this degradation to levels achieved in the presence of 8 alone | ERα degradation (ERα; MCF7, 100 and 300 nM, 24 h, western blot): near-complete degradation of ERα | concentration giving maximal ERα degradation (ERα; MCF7, 24 hours, western blot): ≥ 10 nM | remaining activity at 1 µM (ERα; MCF7, read-out: ERa % of control): 0.87%
